Test results taken from a melting point compilation (Tetko et al.; mined from patent text by program, amines drawn as free bases though some values may be those of a salt).

| SMILES | melting point [°C] |
| --- | --- |
| NC(=O)c1cn(CCOC(=O)Oc2ccccc2)nc1[N+](=O)[O-] | 108 to 110 |
| Cc1ccc(N2C(=O)C(O)=C(C(=O)c3ccccc3C)C2c2ccc(C(C)C)cc2)nn1 (stereo not given) | 221 |
| O=c1oc(-c2cccc(OCCc3ccccc3)c2)cc(O)c1SCCc1ccccc1 | 104 to 106 |
| O=[N+]([O-])c1cc(-c2nc3ccccc3s2)cc([N+](=O)[O-])c1 | 73.5 to 84.5 |
| Oc1ccc2c(c1)COc1c-2cc2ccc(O)cc2c1-c1cc(F)cc(F)c1 | 238 to 240 |
| COc1cccc(F)c1CCl | 87 to 89 |
| CC(C)(C)c1cc(C(=NO)c2ccccc2)cc(C(C)(C)C)c1O | 151 |
| Cn1cnc2c(=O)n(-c3ccccc3)c3ncccc3c21 | 262 |
| Cc1cc(N)nc(/C=C/c2nc3cc(Br)cnc3[nH]2)c1 | 280 |
| CC(=O)Nc1ccc(C(=S)NN)cc1 | 220 to 221 |
| Cc1c(C)c2c(c(C)c1O)SC(CCCO)O2 (stereo not given) | 116 to 117 |
| O=C1C(=O)N(c2ccc(Cl)c(Cl)c2)C(=O)N1c1cccc(C(F)(F)F)c1 | 116 |
| CC1(C)C(=CC=C2C(=O)c3ccccc3C2=C(C#N)C#N)N2CCCc3cccc1c32 | 291 |
| NNc1cc(Nc2ccc(F)c(C(F)(F)F)c2)nc(Cl)n1 | 102 to 103 |
| COc1ccc2c(c1)CCC1CCN(CO)C(=O)C(CC(C)N(C)C(C)C)=C21 (stereo not given) | 158 to 161 |
| CC1CCN(CCCC(=O)c2ccc3sc4ccc(C(=O)CCCN5CCC(C)CC5)cc4c3c2)CC1 | 136 to 138 |
| COC(=O)[C@H](CCSC)NC(=O)c1ccc(/C=C(/Cn2ccnc2)c2nccs2)cc1-c1ccccc1 | 122 to 124 |
| Cc1ccc(-c2nnc(N3CCN(c4ccc(O)cc4)CC3)c3ccccc23)cc1 | 265 to 266 |
| CCn1cc(C(=O)O)c(=O)c2cc(F)c(N3CCNCC3)c(C)c21 | 153 to 156 |
| CCOC(=O)c1cc(CC)sc1Nc1ccc(C(F)(F)F)cc1[N+](=O)[O-] | 102 |
| COC(=O)C(=C1NCCCS1)[N+](=O)[O-] | 107 to 108 |
| Cn1ncc2c1-c1c(Oc3ccc(-c4ccc(F)cc4)nc3)sc(C(N)=O)c1CC2 | 236 to 237 |
| O=C(CC(=O)C1CC1)c1cnccn1 | 111 to 112 |
| Oc1ccc(C2=CCCCCCC2)cc1 | 95 to 97 |

| SMILES | melting point [°C] |
| --- | --- |
| CCCCCCCC(=O)c1ccc(CCC(C)(CCOC(C)=O)NC(C)=O)cc1 (stereo not given) | 83 to 84 |
| CCOC(=O)c1ccc(OCC(O)COc2cccc(O)c2C(C)=O)cc1 (stereo not given) | 104 to 106 |
| CC(=O)C(CC(C)C)NC(=O)CCOc1ccc([N+](=O)[O-])cc1 (stereo not given) | 101 to 102 |
| CCOC(=O)c1cn(C)c2cc(F)c(F)cc2c1=O | 210 to 212 |
| Cc1cc(CNC(=O)c2cc(-c3ccc(C(C)(C)C)cc3)[nH]n2)ccc1OC(C)(C)C(=O)O | 100 |
| CSCC[C@@H](NC(=O)[C@H](Cc1ccc(O)cc1)NC(=O)OC(C)(C)C)C(=O)NCC(=O)Oc1c(Cl)c(Cl)c(Cl)c(Cl)c1Cl | 175 to 176 |
| CCOc1cc2c(c(F)c1F)OC(C1CCC(CC)CC1)CC2 (stereo not given) | 90 |
| CCN1C(=O)CC(C(=O)O)C1c1ccccc1 (stereo not given) | 151 to 156 |
| COCCSc1ccccc1S(=O)(=O)NC(=O)Nc1nc(C)nc(OC)n1 | 127 to 128 |
| COCc1nc2c(N)nc3c(c2n1CC(C)(C)OCCS(C)(=O)=O)CCCC3 | 195 to 197 |
| Cn1cc(-c2cc(-c3cnc4c(c3)CCN4)ccn2)n(-c2ccc(C(C)(C)C#N)cc2)c1=O | 247 |
| COc1ccc(C#Cc2cc(C(=O)O)nc(C(=O)O)c2)cc1 | > 300 |
| CCCCC1OC(=O)c2cc(NC(N)=O)ccc21 (stereo not given) | 196 to 199 |
| COc1ccc(-c2cc(C)cn2-c2ccc(S(N)(=O)=O)cc2)cc1Cl | 160 to 163 |
| CC(=O)N1C(C(=O)c2cn(C(=O)OC(C)(C)C)c3ccccc23)CSC1c1cccnc1 (stereo not given) | 141 to 143 |
| CCCN(CCC)C(=O)CCCN1CC[C@H](CNC(=O)c2ccc(N)cc2OC)[C@H](OC)C1 (relative stereo) | 133 |
| CC(=O)N1CCNC(=O)C1c1ccc(F)cc1 (stereo not given) | 139 to 140 |
| CC(C)[C@H](NC(=O)OCc1ccccn1)C(=O)N[C@@H](Cc1ccccc1)C[C@H](OC=O)[C@H](Cc1ccccc1)NC(=O)[C@@H](NC(=O)OCc1ccccn1)C(C)C | 206 to 207 |
| CCS(=O)(=O)c1cc2c(c(C(=O)Cl)c1)OCCO2 | 146 to 147 |
| O=c1[nH]c(N2CCOCC2)nc2c1C=CCC2 | 228 to 230 |
| N#Cc1cc(C(F)(F)F)[nH]c1-c1ccc(Cl)c([N+](=O)[O-])c1 | 258 to 260 |
| CNC(=O)CC1CSc2c(C(=O)OC(C)C)ccn21 (stereo not given) | 117 to 119 |
| Cc1cccc(S(=O)(=O)OS(=O)(=O)c2cccc(C)c2C)c1C | 115 to 130 |
| CC(C)Oc1c(-c2ccc(S(C)(=O)=O)cc2)cnn(Cc2ccccc2)c1=O | 109 to 111 |

| SMILES | melting point [°C] |
| --- | --- |
| CCCCCc1ncc(C(=O)O)s1 | 90 |
| CCOC(=O)c1cnn2c(-c3cccc(NC(=O)C4CCC4)c3)ccnc12 | 123 to 125 |
| CCCCc1nn(-c2cccc([N+](=O)[O-])c2)c(=O)n1Cc1ccc(-c2ccccc2S(=O)(=O)NC(C)(C)C)cc1 | 164 to 165 |
| COc1ccc(C2Sc3ccccc3NC(=O)C2OC(C)=O)cc1 (stereo not given) | 193 to 195 |
| CC(Oc1cc(Cl)ccc1Br)C(=O)N(C)C (stereo not given) | 76 to 77 |
| CC(=O)OCC(C)C1CCC2C3CC=C4CC(OC5CCCCO5)CC(OC5CCCCO5)C4(C)C3CCC12C (stereo not given) | 155 to 161 |
| CC(C)c1ccc(C(=O)CCc2ccccc2)c(C(C)C)c1OS(N)(=O)=O | 121 to 124 |
| COC(=O)CNc1cc(F)cc(F)c1 | 75 to 77 |
| CN1C(=O)C(c2ccc(OC(F)F)cc2)(c2cccc(COCCF)c2)N=C1N (stereo not given) | 40 to 43 |
| O=C1C=CC(Cl)(C(=O)OC(c2ccccc2)c2ccccc2)O1 (stereo not given) | 99 to 101 |
| O=C(CC(=O)C(F)(F)Cl)c1ccc(Cl)cc1 | 50 to 51 |
| CN(CCc1ccc2c(c1)OCO2)C(C)(C)CCC(C(N)=O)(c1ccccc1)c1ccccc1 | 165 |
| CC(=O)OC1CSC(Oc2cncc(-c3ccc(CO)cc3)c2)C(OC(C)=O)C1OC(C)=O (stereo not given) | 132 to 133 |
| Cn1c(=O)c(Cc2ccccc2F)cc2cnc(S(C)(=O)=O)nc21 | 154 |
| CCOC(=O)C1CC(=O)C(NC(C)=O)=C(O)C1 (stereo not given) | 112 to 114 |
| Brc1nc(Br)n(COCc2ccccc2)c1Sc1ccccc1 | 89 to 90 |
| Clc1ccc(COC(C=Cc2ccccc2)Cn2ccnc2)c(Cl)c1 (stereo not given) | 134 |
| O=C1CCC(N2Cc3c(OCc4ccccn4)cccc3C2=O)C(=O)N1 (stereo not given) | 235 to 237 |
| CC(=O)OC1CC2(CCN(CCCC(=O)c3ccc(F)cc3)C2)c2ccccc21 (stereo not given) | 154 to 156 |
| OC[C@H]1OC[C@@H](n2cnc3cc(Cl)c(Cl)cc32)C[C@@H]1O | 197 |
| CC1(C)C=Cc2cc(C#N)c(N)cc2O1 | 137 to 138 |
| Fc1cc(Br)c2ccccc2c1Cl | 75 to 76 |
